Reference: PubChem BioAssay AID1963832 (Molecular Pharmacology Branch, DTP, NCI, 2024)

Test system: 885724-159-R-J1-PDC complex spheroid viability
Assay: Anticancer human tumor 885724-159-R-J1-PDC patient-derived pancreatic adenocarcinoma cell line growth inhibition [POLQ]
Details: for IC50: curve of first compound; for viability, T/C: stronger effect = lower value
Summary of the method: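 Complex spheroid viability model combining PDC tumour cells with endothelial (HUVEC) and MSC stromal cells. Novobiocin, ART-558 or RP6685 were tested singly and in combination with standard and investigational anticancer drugs. Each was titrated in half-log steps from near clinical Cmax, or from 10 microM where Cmax was unknown.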
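Also: spheroids exposed to compounds for 7 days.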

Question: With `C=CCn1c(=O)c2cnc(Nc3ccc(N4CCN(C)CC4)cc3)nc2n1-c1cccc(C(C)(C)O)n1` + Nc1ccc(C#CCN(C(=O)Cc2ncc(C(F)(F)F)cc2C(F)(F)F)c2ccc(F)cc2)nn1 as the compound, how does the IC50 (second compound 0.0316 µM) read?
Answer: 762 nM

Question: What about the IC50 (second compound 0.1 µM) of the same compound?
Answer: 667 nM

Question: What about the IC50 (second compound 0.316 µM) of the same compound?
Answer: 630 nM

Question: What about the IC50 (second compound 1 µM) of the same compound?
Answer: > 1000 nM

Question: What about the IC50 (second compound 3.16 µM) of the same compound?
Answer: 779 nM

Question: What about the IC50 (second compound 10 µM) of the same compound?
Answer: 880 nM

Question: And the viability, T/C (second compound 0.0316 µM, first compound 0.00316 µM)?
Answer: 96.6%

Question: And the viability, T/C (second compound 0.0316 µM, first compound 0.01 µM)?
Answer: 96%

Question: What about the viability, T/C (second compound 0.0316 µM, first compound 0.0316 µM) of the same compound?
Answer: 79.6%

Question: And the viability, T/C (second compound 0.0316 µM, first compound 0.1 µM)?
Answer: 67.8%

Question: And the viability, T/C (second compound 0.0316 µM, first compound 0.316 µM)?
Answer: 57.4%

Question: What about the viability, T/C (second compound 0.0316 µM, first compound 1 µM) of the same compound?
Answer: 47.3%

Question: What about the viability, T/C (second compound 0.1 µM, first compound 0.00316 µM) of the same compound?
Answer: 106%

Question: And the viability, T/C (second compound 0.1 µM, first compound 0.01 µM)?
Answer: 95.1%

Question: What about the viability, T/C (second compound 0.1 µM, first compound 0.0316 µM) of the same compound?
Answer: 86.5%

Question: And the viability, T/C (second compound 0.1 µM, first compound 0.1 µM)?
Answer: 73.8%

Question: What about the viability, T/C (second compound 0.1 µM, first compound 0.316 µM) of the same compound?
Answer: 57.1%

Question: And the viability, T/C (second compound 0.1 µM, first compound 1 µM)?
Answer: 45.8%

Question: And the viability, T/C (second compound 0.316 µM, first compound 0.00316 µM)?
Answer: 94.9%

Question: What about the viability, T/C (second compound 0.316 µM, first compound 0.01 µM) of the same compound?
Answer: 92.2%

Question: What about the viability, T/C (second compound 0.316 µM, first compound 0.0316 µM) of the same compound?
Answer: 89.8%

Question: What about the viability, T/C (second compound 0.316 µM, first compound 0.1 µM) of the same compound?
Answer: 73.9%

Question: And the viability, T/C (second compound 0.316 µM, first compound 0.316 µM)?
Answer: 56.2%

Question: What about the viability, T/C (second compound 0.316 µM, first compound 1 µM) of the same compound?
Answer: 46%

Question: What about the viability, T/C (second compound 1 µM, first compound 0.00316 µM) of the same compound?
Answer: 102%

Question: And the viability, T/C (second compound 1 µM, first compound 0.01 µM)?
Answer: 92.6%

Question: What about the viability, T/C (second compound 1 µM, first compound 0.0316 µM) of the same compound?
Answer: 91.3%

Question: And the viability, T/C (second compound 1 µM, first compound 0.1 µM)?
Answer: 76%

Question: And the viability, T/C (second compound 1 µM, first compound 0.316 µM)?
Answer: 58.1%

Question: What about the viability, T/C (second compound 1 µM, first compound 1 µM) of the same compound?
Answer: 53.3%

Question: What about the viability, T/C (second compound 3.16 µM, first compound 0.00316 µM) of the same compound?
Answer: 96.3%

Question: And the viability, T/C (second compound 3.16 µM, first compound 0.01 µM)?
Answer: 101%

Question: And the viability, T/C (second compound 3.16 µM, first compound 0.0316 µM)?
Answer: 88.2%

Question: What about the viability, T/C (second compound 3.16 µM, first compound 0.1 µM) of the same compound?
Answer: 73.9%

Question: And the viability, T/C (second compound 3.16 µM, first compound 0.316 µM)?
Answer: 56%

Question: What about the viability, T/C (second compound 3.16 µM, first compound 1 µM) of the same compound?
Answer: 48.3%

Question: What about the viability, T/C (second compound 10 µM, first compound 0.00316 µM) of the same compound?
Answer: 116%

Question: What about the viability, T/C (second compound 10 µM, first compound 0.01 µM) of the same compound?
Answer: 98.2%

Question: What about the viability, T/C (second compound 10 µM, first compound 0.0316 µM) of the same compound?
Answer: 98.5%

Question: What about the viability, T/C (second compound 10 µM, first compound 0.1 µM) of the same compound?
Answer: 81.4%

Question: And the viability, T/C (second compound 10 µM, first compound 0.316 µM)?
Answer: 63.7%

Question: What about the viability, T/C (second compound 10 µM, first compound 1 µM) of the same compound?
Answer: 48.2%

Question: Which results are given for `CC(=O)O[C@H]1C(=O)[C@@]2(C)[C@H]([C@H](OC(=O)c3ccccc3)[C@]3(O)C[C@H](OC(=O)[C@H](O)[C@@H](NC(=O)c4ccccc4)c4ccccc4)C(C)=C1C3(C)C)[C@]1(OC(C)=O)CO[C@@H]1C[C@@H]2O` + Nc1ccc(C#CCN(C(=O)Cc2ncc(C(F)(F)F)cc2C(F)(F)F)c2ccc(F)cc2)nn1?
Answer: IC50 (second compound 0.0316 µM): > 3000 nM; IC50 (second compound 0.1 µM): > 3000 nM; IC50 (second compound 0.316 µM): > 3000 nM; IC50 (second compound 1 µM): > 3000 nM; IC50 (second compound 3.16 µM): > 3000 nM; IC50 (second compound 10 µM): > 3000 nM; viability, T/C (second compound 0.0316 µM, first compound 0.00949 µM): 65.9%; viability, T/C (second compound 0.0316 µM, first compound 0.03 µM): 59.9%; viability, T/C (second compound 0.0316 µM, first compound 0.0949 µM): 56.6%; viability, T/C (second compound 0.0316 µM, first compound 0.3 µM): 64.7%; viability, T/C (second compound 0.0316 µM, first compound 0.949 µM): 62.5%; viability, T/C (second compound 0.0316 µM, first compound 3 µM): 70.3%; viability, T/C (second compound 0.1 µM, first compound 0.00949 µM): 69.9%; viability, T/C (second compound 0.1 µM, first compound 0.03 µM): 61.7%; viability, T/C (second compound 0.1 µM, first compound 0.0949 µM): 62.5%; viability, T/C (second compound 0.1 µM, first compound 0.3 µM): 69.1%; viability, T/C (second compound 0.1 µM, first compound 0.949 µM): 70%; viability, T/C (second compound 0.1 µM, first compound 3 µM): 68.9%; viability, T/C (second compound 0.316 µM, first compound 0.00949 µM): 71.8%; viability, T/C (second compound 0.316 µM, first compound 0.03 µM): 60.4%; viability, T/C (second compound 0.316 µM, first compound 0.0949 µM): 68%; viability, T/C (second compound 0.316 µM, first compound 0.3 µM): 58.1%; viability, T/C (second compound 0.316 µM, first compound 0.949 µM): 71.2%; viability, T/C (second compound 0.316 µM, first compound 3 µM): 74%; viability, T/C (second compound 1 µM, first compound 0.00949 µM): 63.4%; viability, T/C (second compound 1 µM, first compound 0.03 µM): 61.5%; viability, T/C (second compound 1 µM, first compound 0.0949 µM): 58.6%; viability, T/C (second compound 1 µM, first compound 0.3 µM): 63%; viability, T/C (second compound 1 µM, first compound 0.949 µM): 70.2%; viability, T/C (second compound 1 µM, first compound 3 µM): 69.5%; viability, T/C (second compound 3.16 µM, first compound 0.00949 µM): 64.8%; viability, T/C (second compound 3.16 µM, first compound 0.03 µM): 66.5%; viability, T/C (second compound 3.16 µM, first compound 0.0949 µM): 61.9%; viability, T/C (second compound 3.16 µM, first compound 0.3 µM): 60%; viability, T/C (second compound 3.16 µM, first compound 0.949 µM): 68.3%; viability, T/C (second compound 3.16 µM, first compound 3 µM): 75%; viability, T/C (second compound 10 µM, first compound 0.00949 µM): 67.4%; viability, T/C (second compound 10 µM, first compound 0.03 µM): 59.2%; viability, T/C (second compound 10 µM, first compound 0.0949 µM): 66.2%; viability, T/C (second compound 10 µM, first compound 0.3 µM): 70%; viability, T/C (second compound 10 µM, first compound 0.949 µM): 75.3%; viability, T/C (second compound 10 µM, first compound 3 µM): 71.8%
